Article PMC5344672 (Journal of medicinal chemistry, 2016)
Entries after “also recorded” stand apart in the source; their conditions may differ.

Experiments:
DOR-1 = DOR-1 (Mus musculus, UniProt P32300); assay: [35S]GTPγS functional assay, DOR-1 transfected cells; format: biochemical; settings: in words
MOR-1 = MOR-1 (Mus musculus, UniProt P42866); assay: [35S]GTPγS functional assay, MOR-1 transfected cells; format: biochemical; settings: in words
KOR-1 = KOR-1 (Mus musculus, UniProt P33534); format: biochemical
[1] = target: panel of other nonopioid drug targets; assay: PDSP screening panel; format: binding; settings: read-out: Ki at nonopioid drug targets
C57BL/6 mice = assay: Respiratory rate; format: in vivo, mouse
mice [2] = assay: Radiant heat tail flick antinociception; format: in vivo, mouse
mice [3] = assay: Gastrointestinal transit; format: in vivo, mouse
mice [4] = settings: mouse, in vivo
mice [5] = assay: Antinociceptive tolerance after repeated dosing; format: in vivo, mouse; settings: twice daily dosing
α2A adrenergic receptor = target: T1, α2A adrenergic receptor (Homo sapiens, UniProt P08913); assay: PDSP screening; format: binding; settings: in words (Table S1)
T1 sequence (P08913 1-465): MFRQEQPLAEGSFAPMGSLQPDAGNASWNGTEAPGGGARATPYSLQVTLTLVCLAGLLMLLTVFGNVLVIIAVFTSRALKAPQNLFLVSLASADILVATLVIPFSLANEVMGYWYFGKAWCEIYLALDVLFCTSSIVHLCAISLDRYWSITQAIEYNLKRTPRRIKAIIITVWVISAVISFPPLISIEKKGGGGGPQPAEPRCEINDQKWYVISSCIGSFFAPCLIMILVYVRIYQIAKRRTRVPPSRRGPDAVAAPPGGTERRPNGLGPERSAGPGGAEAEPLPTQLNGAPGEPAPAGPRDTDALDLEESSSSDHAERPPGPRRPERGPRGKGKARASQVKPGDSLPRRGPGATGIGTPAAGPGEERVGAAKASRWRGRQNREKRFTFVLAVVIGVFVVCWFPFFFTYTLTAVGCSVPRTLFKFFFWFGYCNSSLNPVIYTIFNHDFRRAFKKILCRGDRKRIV

5HT7 = 5HT7 (Homo sapiens, UniProt P34969); assay: PDSP screening; format: binding; settings: in words (Table S1)
mice [6] = assay: Antisense oligodeoxynucleotide mapping of tail flick antinociception; format: in vivo, mouse; settings: 3 1.5 mg/kg sc, antisense icv days 1, 3, 5, test day 6
α2C adrenergic receptor = target: T2, α2C adrenergic receptor (Homo sapiens, UniProt P18825); assay: PDSP screening; format: binding; settings: in words (Table S1)
T2 sequence (P18825 1-462): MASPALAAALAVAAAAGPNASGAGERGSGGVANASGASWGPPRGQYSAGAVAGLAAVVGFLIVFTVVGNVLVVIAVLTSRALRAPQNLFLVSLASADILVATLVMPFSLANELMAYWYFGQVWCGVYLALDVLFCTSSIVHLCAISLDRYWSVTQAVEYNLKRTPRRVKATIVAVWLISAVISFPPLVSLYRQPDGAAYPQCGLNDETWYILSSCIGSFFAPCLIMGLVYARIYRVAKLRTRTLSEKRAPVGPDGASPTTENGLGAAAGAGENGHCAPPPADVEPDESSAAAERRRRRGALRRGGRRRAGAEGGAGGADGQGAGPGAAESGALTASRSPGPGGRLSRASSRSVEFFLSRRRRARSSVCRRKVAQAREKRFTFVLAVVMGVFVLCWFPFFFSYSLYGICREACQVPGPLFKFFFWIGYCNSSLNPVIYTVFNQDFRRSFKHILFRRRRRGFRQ

CD1 mice = assay: Reversal of tail flick antinociception by selective antagonists; format: in vivo, mouse; settings: 3 1.5 mg/kg sc; β-FNA 40 mg/kg, norBNI 10 mg/kg, NTI 0.5 mg/kg, naloxone 1 mg/kg, yohimbine 10 mg/kg
[7] = higher dose: morphine 10 mg/kg, 3 3 mg/kg sc
[8] = ~2× analgesic ED50: morphine 5 mg/kg sc, 3 1.2 mg/kg sc
[9] = dose twice analgesic ED50: morphine 5 mg/kg sc, 3 1.5 mg/kg sc

Sequence of DOR-1 (P32300 whole entry): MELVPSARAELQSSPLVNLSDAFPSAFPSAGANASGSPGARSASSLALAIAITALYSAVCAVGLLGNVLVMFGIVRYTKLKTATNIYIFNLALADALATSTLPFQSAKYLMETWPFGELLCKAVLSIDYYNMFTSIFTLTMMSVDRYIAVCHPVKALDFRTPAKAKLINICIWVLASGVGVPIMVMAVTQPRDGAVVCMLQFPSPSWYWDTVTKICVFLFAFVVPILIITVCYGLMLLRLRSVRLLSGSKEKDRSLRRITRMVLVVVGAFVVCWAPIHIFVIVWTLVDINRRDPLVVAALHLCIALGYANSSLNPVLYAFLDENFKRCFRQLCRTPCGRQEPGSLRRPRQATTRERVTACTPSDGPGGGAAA
Sequence of MOR-1 (P42866 whole entry): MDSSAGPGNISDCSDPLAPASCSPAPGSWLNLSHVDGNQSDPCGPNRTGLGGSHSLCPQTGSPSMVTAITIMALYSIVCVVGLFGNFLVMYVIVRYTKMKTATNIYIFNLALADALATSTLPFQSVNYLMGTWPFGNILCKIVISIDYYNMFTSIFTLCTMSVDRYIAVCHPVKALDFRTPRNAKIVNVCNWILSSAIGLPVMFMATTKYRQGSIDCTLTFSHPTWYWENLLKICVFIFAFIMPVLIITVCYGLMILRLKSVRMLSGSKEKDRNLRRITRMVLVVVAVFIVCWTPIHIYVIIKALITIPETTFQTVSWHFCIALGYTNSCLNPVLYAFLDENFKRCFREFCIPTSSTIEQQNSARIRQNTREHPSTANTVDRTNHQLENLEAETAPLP
Sequence of KOR-1 (P33534 whole entry): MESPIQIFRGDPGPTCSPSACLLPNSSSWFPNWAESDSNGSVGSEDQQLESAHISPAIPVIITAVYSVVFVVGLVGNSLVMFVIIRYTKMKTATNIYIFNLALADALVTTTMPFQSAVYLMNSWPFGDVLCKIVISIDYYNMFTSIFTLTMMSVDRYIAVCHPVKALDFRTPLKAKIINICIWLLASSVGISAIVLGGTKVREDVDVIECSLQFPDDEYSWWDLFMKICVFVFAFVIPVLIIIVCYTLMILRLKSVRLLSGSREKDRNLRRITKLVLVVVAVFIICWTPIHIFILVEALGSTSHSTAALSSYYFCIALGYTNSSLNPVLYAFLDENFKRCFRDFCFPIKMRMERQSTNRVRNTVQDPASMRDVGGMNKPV
Sequence of 5HT7 (P34969 whole entry, species assumed): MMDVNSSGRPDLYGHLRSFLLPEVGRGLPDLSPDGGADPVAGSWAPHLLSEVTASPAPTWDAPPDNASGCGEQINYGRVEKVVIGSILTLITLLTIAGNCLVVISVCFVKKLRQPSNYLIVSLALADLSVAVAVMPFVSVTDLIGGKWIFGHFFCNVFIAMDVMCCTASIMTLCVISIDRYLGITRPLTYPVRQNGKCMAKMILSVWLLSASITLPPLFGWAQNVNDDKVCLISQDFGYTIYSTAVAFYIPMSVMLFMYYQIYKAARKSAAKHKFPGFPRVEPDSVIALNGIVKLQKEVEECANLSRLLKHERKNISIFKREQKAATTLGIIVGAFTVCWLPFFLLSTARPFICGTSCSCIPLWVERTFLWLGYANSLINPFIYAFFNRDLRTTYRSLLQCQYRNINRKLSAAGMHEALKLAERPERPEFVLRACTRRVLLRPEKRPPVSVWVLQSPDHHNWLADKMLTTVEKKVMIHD

CC[C@@H]1CN2CC[C@]3(Nc4cccc(-c5ccccc5)c4C3=O)[C@@H]2C[C@@H]1/C(=C\OC)C(=O)OC [Compound 8, (E)-Methyl-2-((1′S,6′S,7′S)-6′-ethyl-3-oxo-4-phenyl-3′,5′,6′,7′,8′,8a′-hexahydro-2′H-spiro[indoline-2,1′-indolizine]-7′-yl)-3-methoxyacrylate]
functional character at DOR-1 (DOR-1): dual MOR-1/DOR-1 agonist
functional character at MOR-1 (MOR-1): dual MOR-1/DOR-1 agonist

CC[C@@H]1CN2CC[C@@]3(O)C(=Nc4cccc(OC)c43)[C@@H]2C[C@@H]1/C(=C\OC)C(=O)OC [Compound 2, (E)-Methyl-2-((2S,3S,7aS)-3-ethyl-7a-hydroxy-8-methoxy-1,2,3,4,6,7,7a,12b-octahydroindolo[2,3-a]quinolizin-2-yl)-3-methoxyacrylate]
functional character at DOR-1 (DOR-1): weak KOR-1 and DOR-1 antagonist
functional character at KOR-1 (KOR-1): weak KOR-1 and DOR-1 antagonist
Ki [1]: > 10 µM
functional character at MOR-1 (MOR-1): partial agonist

CC[C@@H]1CN2CC[C@]3(Nc4cccc(C#N)c4C3=O)[C@@H]2C[C@@H]1/C(=C\OC)C(=O)OC [Compound 7, (E)-Methyl-2-((1′S,6′S,7′S)-4-cyano-6′-ethyl-3-oxo-3′,5′,6′,7′,8′,8a′-hexahydro-2′H-spiro[indoline-2,1′-indolizine]-7′-yl)-3-methoxyacrylate]
functional character at DOR-1 (DOR-1): DOR-1 antagonists
functional character at MOR-1 (MOR-1): MOR-1 agonists

CN1CC[C@]23c4c5ccc(O)c4O[C@H]2[C@@H](O)C=C[C@H]3[C@H]1C5 [morphine, reference compound]
decrease of respiratory rate (C57BL/6 mice; [7]): approximately 50%
decrease of respiratory rate (C57BL/6 mice; [8]): approximately 30%
ED50 (mice [2]; Mus musculus, sc, 0.25 h, read-out: antinociception sc, ED50 mg/kg (CI)): 2.5 mg/kg
effect on gastrointestinal transit (mice [3]; [9]): almost totally eliminated transit
conditioned place preference or aversion (mice [4]): significant conditioned place preference
ED50 after 5 days (mice [5]; day 5): 12.1 (7.6–19.4) mg/kg

CC[C@@H]1CN2CC[C@]3(Nc4ccccc4C3=O)[C@@H]2C[C@@H]1/C(=C\OC)C(=O)OC [Compound 6, (E)-Methyl-2-((1′S,6′S,7′S)-6′-ethyl-3-oxo-3′,5′,6′,7′,8′,8a′-hexahydro-2′H-spiro[indoline-2,1′-indolizin]-7′-yl)-3-methoxyacrylate]
functional character at DOR-1 (DOR-1): DOR-1 antagonists
functional character at MOR-1 (MOR-1): MOR-1 agonists

CC[C@@H]1CN2CC[C@]3(Nc4cccc(O)c4C3=O)[C@@H]2C[C@@H]1/C(=C\OC)C(=O)OC [Compound 4, (E)-Methyl-2-((1′S,6′S,7′S)-6′-ethyl-4-hydroxy-3-oxo-3′,5′,6′,7′,8′,8a′-hexahydro-2′H-spiro[indoline-2,1′-indolizine]-7′-yl)-3-methoxyacrylate]
functional character at DOR-1 (DOR-1): DOR-1 antagonists
functional character at MOR-1 (MOR-1): MOR-1 agonists

CC[C@@H]1CN2CC[C@]3(Nc4cccc(OC)c4C3=O)[C@@H]2C[C@@H]1/C(=C\OC)C(=O)OC [Compound 3, (E)-Methyl-2-((1′S,6′S,7′S)-6′-ethyl-4-methoxy-3-oxo-3′,5′,6′,7′,8′,8a′-hexahydro-2′H-spiro[indoline-2,1′-indolizine]-7′-yl)-3-methoxyacrylate]
functional character at DOR-1 (DOR-1): antagonist
functional character at KOR-1 (KOR-1): antagonist
decrease of respiratory rate (C57BL/6 mice; [7]): approximately 15%
decrease of respiratory rate (C57BL/6 mice; [8]): no respiratory depression
antinociceptive activity across mouse strains (mice [2]; CD1, C57BL/6 and 129Sv6 mice, sc (Figure S5)): equally active
ED50 (95% CI), intracerebroventricular (mice [2]; CD1 mice, icv, tail flick, 15 min): 0.38 (0.18- 0.81) μg
ED50, exon 1/exon 11 double KO mice (mice [2]; E1/E11 MOR-1 KO mice, sc, tail flick): no antinociception was observed
affinity at α2A adrenergic receptor (α2A adrenergic receptor): poor affinity
effect on gastrointestinal transit (mice [3]; 3 at 4 mg/kg sc): no further inhibition
effect on gastrointestinal transit (mice [3]; [9]): lowered gastrointestinal transit, but not nearly as much as morphine
conditioned place preference or aversion (mice [4]): neither preference or aversive behavior
affinity at 5HT7 (5HT7): poor affinity
effect of antisense receptor downregulation on analgesic response (mice [6]): only affected in mu receptor downregulated mice (MOR-1 AN)
affinity at α2C adrenergic receptor (α2C adrenergic receptor): poor affinity
sensitivity of antinociception to antagonists (CD1 mice): insensitive to NTI, norBNI, and yohimbine; also recorded: antagonized by β-FNA and naloxone
functional character at MOR-1 (MOR-1): potent full agonist
ED50 shift after 5 days (mice [5]): < 2 fold
mean difference between 3 and morphine groups on day 5 (mice [5]; 95% CI 42.27 to 65.67): 53.97 %MPE

CC[C@@H]1CN2CC[C@]3(Nc4cccc(-c5ccoc5)c4C3=O)[C@@H]2C[C@@H]1/C(=C\OC)C(=O)OC [Compound 9, (E)-Methyl-2-((1′S,6′S,7′S)-6′-ethyl-4-(furan-3-yl)-3-oxo-3′,5′,6′,7′,8′,8a′-hexahydro-2′H-spiro[indoline-2,1′-indolizine]-7′-yl)-3-methoxyacrylate]
functional character at DOR-1 (DOR-1): DOR-1 antagonists
functional character at MOR-1 (MOR-1): MOR-1 agonists
